On the set-up of data set [1]: method as in PMID 25145672. Conditions: cited from earlier work.
Data set [2] concerns BFU-E (Burst Forming Unit-Erythroid) progenitors from CD34+ cells. Nature of the data set: Colony assay in methylcellulose, BFU-E. The data set is classed as cell-based, human. To be noted: for IC50: Homo sapiens. Here is the method: (§1) CD34^+cells were obtained from leukapheresis samples after mobilization of donors after informed consent in agreement with our Institute Ethic Committee (Assistance Publique des Hôpitaux de Paris) and in accordance with the Declaration of Helsinki. CD34^+cells were isolated by a positive selection using an immunomagnetic cell sorting system (AutoMacs; Miltenyi Biotec, Bergisch Gladbach, Germany). 500 to 1000 normal CD34^+cells were plated either in 1% methylcellulose assay (StemCells technologies, Vancouver, Canada) to quantify erythroid (BFU-E) and granulo-monocytic (CFU-GM) progenitors or in serum-free fibrin clot assay for quantification of MK progenitors (CFU-MK) in the absence or presence of various concentration of SAR405838 or MI-219. Cultures in methylcellulose were stimulated by addition of human recombinant growth factors: G-CSF (20 ng/mL), IL-3 (10 ng/mL) SCF (25 ng/mL, Biovitrum AB, Stockholm, Sweden), IL-6 (10 ng/mL), FLT3 (10 ng/mL) and human EPO (1 U/mL). Cultures in fibrin clot were stimulated with 10 ng/mL TPO (Kirin Brewery, Tokyo, Japan) and 25 ng/mL SCF. BFU-E and CFU-GM colonies were enumerated at day 14 of culture. CFU-MK colonies were enumerated at day 12 after labeling by an indirect immuno-alkaline phosphatase staining technique using an anti-CD41a monoclonal antibody (MoAb; Becton Dickinson, le Pont de Claix, France; clone HIP8), as previously described.

The subject of data set [3] is CFU-GM (Colony Forming Unit-Granulocyte Macrophage) progenitors from CD34+ cells. Nature of the data set: Colony assay in methylcellulose, CFU-GM. The data set is classed as cell-based, human. Conditions: Homo sapiens, CFU-GM. Here is the method:
as §1, with “BFU-E and CFU-GM colonies were enumerated at day 14 of culture.” left out

Data set [4] has as its system p53 in day 8-erythroblasts. Put plainly: p53 expression by western-blot in day 8-erythroblasts. Conditions: Homo sapiens, 192 h, read-out: p53 fold induction (western-blot).
Description: For that purpose, CD34^+ progenitors were cultured in serum-free medium with SCF and EPO for 8 days. SAR405838- or MI-219-treated erythroblasts were analyzed for p53 expression by western-blot. […] Day 8-erythroblasts were treated with various doses of SAR405838 or MI-219 for 48 hours.
Figure 4 Effect of SAR405838 on erythroid differentiation A. Day 8-erythroblasts treated with MI-219 or SAR405838 were analyzed for p53 expression by western-blot. β-actin was used as loading control.
Expression levels were performed by western-blot analysis using mouse anti-p53 and anti-β-actin (Sigma-Aldrich), anti-bax (Oncogene), anti-p21 (Beckton Dickenson), anti-Mdm2 (BD Pharmingen), anti-BCL-XL, and rat anti-HSC70 (Stressgen). Proteins were quantified by Image J software.
For data set [5], the system named is CD34+ progenitors cultured with SCF and TPO. Put plainly: Viable CD34+ progenitors at early stage of megakaryocytic differentiation, Trypan blue exclusion. Conditions: Homo sapiens, read-out: IC50, decrease in number of viable cells. The data set is classed as cell-based. Here is the method:
We explored the effect of p53 stabilization on the viability of CD34^+progenitors at early stages of megakaryocytic differentiation. CD34^+ progenitors were cultured for one day in serum-free medium supplemented with SCF and TPO and treated with SAR405838 or MI-219. After a 48 or 72 hour incubation, cells were counted by Trypan blue exclusion and apoptotic cells were quantified by flow cytometry using Annexin V / Propidium iodide labeling.
A. Cells were counted by Trypan blue exclusion.

Where two headings read alike, the source gives them in different places.

As to `CC(C)(C)C[C@@H]1N[C@@H](C(=O)N[C@H]2CC[C@H](O)CC2)[C@H](c2cccc(Cl)c2F)[C@]12C(=O)Nc1cc(Cl)ccc12` [SAR405838], the hematopoietic toxicity result in data set [1] is on record as “reversible thrombocytopenia”. Moreover, the IC50 was approximately 2000 nM in data set [2] (72 h, CD34+ cells treated 3 days, washed, then plated in colony assay, read-out: IC50, reduction of BFU-E progenitors); 500 to 1000 nM in data set [2] (CD34+ cells seeded in methylcellulose in the presence of compound, compared to untreated control, read-out: dose inducing a 50% reduction of BFU-E numbers); approximately 2000 nM in data set [3] (72 h, CD34+ cells treated 3 days, washed, then plated in colony assay, read-out: IC50, reduction of CFU-GM progenitors); 500 to 1000 nM in data set [3] (CD34+ cells seeded in methylcellulose in the presence of compound, compared to untreated control, read-out: dose inducing a 50% reduction of CFU-GM numbers); approximately 1500 nM in data set [5] (48 hours of treatment); approximately 1500 nM in data set [5] (72 hours of treatment). Further, in data set [2] (sorted CD34+CD38- immature vs CD34+CD38+ committed cells), the “higher sensitivity of CD34+CD38- progenitors than CD34+CD38+ progenitors (BFU-E)” value is recorded as 2 fold. Also, the fold induction at 2 µM in data set [4] was found to be 4.8. Besides, in data set [4], the fold induction at 4 µM stood at 4.5.

Source of the values: PMC5077990, “P53 activation inhibits all types of hematopoietic progenitors and all stages of megakaryopoiesis” (Oncotarget, 2016).
